This is an account of results in PMC12434495 (Chemical Science, 2025).

For data set [1] the following is noted: cited from earlier work.
The test system of data set [2] is α-thrombin. Kind of data set: human α-thrombin. The following applies: 37 °C, up to 4 h.

With bivalirudin, in data set [1], the “plasma half-life in vivo” value is about 30 min. In data set [2], “GEPGAPIDYDEYGDSSEEVGGAEVAQPKLYQRGEGGNGMEPIPEDYLQ (the three Y O-sulfated, R1,2,3 = SO3-)” registered a not cleaved of under 10% cleavage after 4 h.
